Test results taken from ChEMBL document CHEMBL1124625, “Flavones. 2. Synthesis and structure-activity relationship of flavodilol and its analogues, a novel class of antihypertensive agents with catecholamine depleting properties” (J Med Chem, 1989).
The source made the active and inactive calls. The calls are words filed in the database; no cut-off is given here.

What was measured:
Rattus norvegicus [1] = experiment: % decrease in adrenal epinephrine in anesthetized spontaneously hypertensive rats(SHR) at 24 hours after administration of 150 mg/kg dose perorally; type: functional; conditions: route oral
Rattus norvegicus [2] = experiment: % decrease in heart norepinephrine in anesthetized spontaneously hypertensive rats(SHR) at 24 hours after administration of 35 mg/kg dose perorally; value significantly different was control; type: functional; conditions: route oral
Rattus norvegicus [3] = experiment: % decrease in heart norepinephrine in anesthetized spontaneously hypertensive rats(SHR) at 7 hours after administration of 150 mg/kg dose perorally;; type: functional; conditions: route oral
Rattus norvegicus [4] = experiment: % decrease in brain norepinephrine in anesthetized spontaneously hypertensive rats(SHR) at 7 hours after administration of 150 mg/kg dose perorally; type: functional; conditions: route oral
Rattus norvegicus [5] = experiment: % decrease in heart norepinephrine in anesthetized spontaneously hypertensive rats(SHR) at 24 hours after administration of 150 mg/kg dose perorally; type: functional; conditions: route oral
Rattus norvegicus [6] = experiment: % decrease in heart norepinephrine in anesthetized spontaneously hypertensive rats(SHR) at 24 hours after administration of 75 mg/kg dose perorally; type: functional; conditions: route oral
Rattus norvegicus [7] = experiment: % decrease in brain norepinephrine in anesthetized spontaneously hypertensive rats(SHR) at 24 hours after administration of 35 mg/kg dose perorally; type: functional; conditions: route oral
Rattus norvegicus [8] = experiment: % decrease in adrenal epinephrine in anesthetized spontaneously hypertensive rats(SHR) at 7 hours after administration of 150 mg/kg dose perorally; type: functional; conditions: route oral
Rattus norvegicus [9] = experiment: Systolic blood pressure (SBP) in anesthetized spontaneously hypertensive rats(SHR) at 7.5 hours after administration of 75 mg/kg dose perorally; type: functional; conditions: route oral
Rattus norvegicus [10] = experiment: % decrease in adrenal epinephrine in anesthetized spontaneously hypertensive rats(SHR) at 24 hours after administration of 35 mg/kg dose perorally; type: functional; conditions: route oral
Rattus norvegicus [11] = experiment: % decrease in brain norepinephrine in anesthetized spontaneously hypertensive rats(SHR) at 24 hours after administration of 150 mg/kg dose perorally; type: functional; conditions: route oral
Cavia porcellus = organism: Cavia porcellus; experiment: Inhibition of the isoproterenol response at a dose of 1 x 10e -4M in guinea pig; slight inhibition was found; type: functional, organism-based
Rattus norvegicus [12] = experiment: % decrease in systolic blood pressure (SBP) in anesthetized spontaneously hypertensive rats(SHR) after administration of 75 mg/kg dose perorally; conditions: route oral
Rattus norvegicus [13] = experiment: % decrease in adrenal epinephrine in anesthetized spontaneously hypertensive rats(SHR) at 1 hours after administration of 150 mg/kg dose perorally; type: functional; conditions: route oral
Rattus norvegicus [14] = experiment: % decrease in adrenal epinephrine in anesthetized spontaneously hypertensive rats(SHR) at 3 hours after administration of 150 mg/kg dose perorally; type: functional; conditions: route oral
Rattus norvegicus [15] = experiment: % decrease in heart norepinephrine in anesthetized spontaneously hypertensive rats(SHR) at 3 hours after administration of 150 mg/kg dose perorally; type: functional; conditions: route oral
Rattus norvegicus [16] = experiment: % decrease in adrenal epinephrine in anesthetized spontaneously hypertensive rats(SHR) at 24 hours after administration of 75 mg/kg dose perorally; type: functional; conditions: route oral
Rattus norvegicus [17] = experiment: Systolic blood pressure (SBP) in anesthetized spontaneously hypertensive rats (SHR) before administration of 75 mg/kg dose perorally.; type: functional; set-up: unit: mmHg; conditions: route oral
Rattus norvegicus [18] = experiment: Systolic blood pressure (SBP) in anesthetized spontaneously hypertensive rats(SHR) before administration of 17 mg/kg dose perorally; type: functional; conditions: route oral
Rattus norvegicus [19] = experiment: % decrease in brain norepinephrine in anesthetized spontaneously hypertensive rats(SHR) at 1 hours after administration of 150 mg/kg dose perorally; type: functional; conditions: route oral
Rattus norvegicus [20] = experiment: % decrease in systolic blood pressure (SBP) in anesthetized spontaneously hypertensive rats(SHR) after administration of 150 mg/kg dose perorally; conditions: route oral
Rattus norvegicus [21] = experiment: % decrease in brain norepinephrine in anesthetized spontaneously hypertensive rats(SHR) at 24 hours after administration of 75 mg/kg dose perorally; type: functional; conditions: route oral
Rattus norvegicus [22] = experiment: Systolic blood pressure (SBP) in anesthetized spontaneously hypertensive rats(SHR) at 7.5 hours after administration of 35 mg/kg dose perorally; type: functional; conditions: route oral
Rattus norvegicus [23] = experiment: Systolic blood pressure (SBP) in anesthetized spontaneously hypertensive rats(SHR) at 7.5 hours after administration of 17 mg/kg dose, perorally; percentage falls in systolic blood pressure were not statistically signific ant; type: functional, organism-based; set-up: dose 17 mg/kg; conditions: Artery
Rattus norvegicus [24] = experiment: % decrease in brain norepinephrine in anesthetized spontaneously hypertensive rats(SHR) at 3 hours after administration of 150 mg/kg dose perorally; type: functional; conditions: route oral
Rattus norvegicus [25] = experiment: % decrease in heart norepinephrine in anesthetized spontaneously hypertensive rats(SHR) at 1 hours after administration of 150 mg/kg dose perorally; type: functional; conditions: route oral
Adrenergic receptor beta = Adrenergic receptor beta (Rattus norvegicus, UniProt P18090+P10608+P26255)
Description: Inhibition constant from beta adrenergic receptor binding assay

Rattus norvegicus [26] = experiment: Systolic blood pressure (SBP) in anesthetized spontaneously hypertensive rats(SHR) before administration of 65 mg/kg dose perorally; type: functional; conditions: route oral
Rattus norvegicus [27] = experiment: Systolic blood pressure (SBP) in anesthetized spontaneously hypertensive rats(SHR) at 7.5 hours after administration of 65 mg/kg dose perorally; NS is not statistically significant.

For `CC(C)NCC(O)COc1ccc2c(=O)cc(-c3ccccc3)oc2c1` (centres undefined), the Decrease (Rattus norvegicus [1]) was 39%, the Decrease (Rattus norvegicus [2]) was 57% and the Decrease (Rattus norvegicus [3]) was 100%. It also gave a Decrease (Rattus norvegicus [4]) of 10%, a Decrease (Rattus norvegicus [5]) of 100% and a Decrease (Rattus norvegicus [6]) of 100%. For the same molecule, the Decrease (Rattus norvegicus [7]) was -4%, the Decrease (Rattus norvegicus [8]) was 16% and the “Decrease in Systolic blood pressure” value (Rattus norvegicus [9]) was 27%. The Decrease (Rattus norvegicus [10]) was 17%, the Decrease (Rattus norvegicus [11]) was 14% and the Activity (Cavia porcellus) was “Weak activity”. The % decrease SBP (Rattus norvegicus [12]) was 16%, the Decrease (Rattus norvegicus [13]) was 10% and the Decrease (Rattus norvegicus [14]) was 4%. The Decrease (Rattus norvegicus [15]) was 71%, the Decrease (Rattus norvegicus [16]) was 23% and the Systolic blood pressure (Rattus norvegicus [17]) was 208. For the same molecule, the Systolic blood pressure (Rattus norvegicus [18]) was 203, the Decrease (Rattus norvegicus [19]) was 0% and the % decrease SBP (Rattus norvegicus [20]) was 33%. For the same molecule, the Decrease (Rattus norvegicus [21]) was 2%, the “Decrease in Systolic blood pressure” value (Rattus norvegicus [22]) was 21% and the “Decrease in Systolic blood pressure” value (Rattus norvegicus [23]) was “inactive”. For the same molecule, the Decrease (Rattus norvegicus [24]) was 2%, the Decrease (Rattus norvegicus [25]) was 40% and the Ki (Adrenergic receptor beta) was 12 µM.

For `CC(C)NCC(O)COc1ccc2c(=O)cc(-c3ccc(N)cc3)oc2c1` (centres undefined), the Systolic blood pressure (Rattus norvegicus [26]) was 206 and the “Decrease in Systolic blood pressure” value (Rattus norvegicus [27]) was “Not significant”.
